Laboratory results reported in US8158636B2, “Compounds and methods for kinase modulation, and indications therefor” (Plexxikon Inc., priority 2008, dated 2012).

Assays:
Type in all cases: biochemical
A-Raf = molecular target: T1, A-Raf (Homo sapiens, UniProt P10398); assay: Kinase activity assay, A-Raf; conditions: Table 1a; read-out: activity toward kinase A-Raf, IC50
T1 sequence (P10398 1-606): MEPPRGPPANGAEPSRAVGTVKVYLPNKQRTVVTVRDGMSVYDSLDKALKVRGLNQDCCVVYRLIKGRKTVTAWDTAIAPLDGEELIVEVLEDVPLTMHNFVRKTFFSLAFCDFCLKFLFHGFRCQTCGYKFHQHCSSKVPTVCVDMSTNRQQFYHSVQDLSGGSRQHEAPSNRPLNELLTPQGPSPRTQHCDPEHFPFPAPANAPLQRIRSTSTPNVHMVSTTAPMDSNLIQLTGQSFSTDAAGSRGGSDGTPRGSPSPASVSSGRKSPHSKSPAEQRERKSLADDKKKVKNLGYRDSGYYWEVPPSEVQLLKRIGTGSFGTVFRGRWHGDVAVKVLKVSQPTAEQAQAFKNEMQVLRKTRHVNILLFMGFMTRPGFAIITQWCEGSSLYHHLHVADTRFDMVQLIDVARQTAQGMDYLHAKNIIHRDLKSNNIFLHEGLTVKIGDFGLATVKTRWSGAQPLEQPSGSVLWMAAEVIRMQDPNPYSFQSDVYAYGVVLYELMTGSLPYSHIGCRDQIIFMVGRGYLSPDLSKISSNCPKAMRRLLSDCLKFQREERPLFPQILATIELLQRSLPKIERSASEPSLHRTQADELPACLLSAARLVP
Source text: (§1) Assays for the activity of kinases, including, but not limited to, Fms, Kit, B-Raf, B-Raf V600E, c-Raf-1, and TrkA are known in the art, for example as described in US Patent Publication Number US20070032519 and U.S. patent application Ser. No. 11/473,347 (see also, PCT publication WO2007002433), the disclosures of which are hereby incorporated by reference with respect to such assays.

B-Raf = B-Raf (Homo sapiens, UniProt P15056); assay: Kinase activity assay, B-Raf; conditions: Table 1b; read-out: activity toward kinase B-Raf, IC50
B-Raf, sequence (P15056 whole entry): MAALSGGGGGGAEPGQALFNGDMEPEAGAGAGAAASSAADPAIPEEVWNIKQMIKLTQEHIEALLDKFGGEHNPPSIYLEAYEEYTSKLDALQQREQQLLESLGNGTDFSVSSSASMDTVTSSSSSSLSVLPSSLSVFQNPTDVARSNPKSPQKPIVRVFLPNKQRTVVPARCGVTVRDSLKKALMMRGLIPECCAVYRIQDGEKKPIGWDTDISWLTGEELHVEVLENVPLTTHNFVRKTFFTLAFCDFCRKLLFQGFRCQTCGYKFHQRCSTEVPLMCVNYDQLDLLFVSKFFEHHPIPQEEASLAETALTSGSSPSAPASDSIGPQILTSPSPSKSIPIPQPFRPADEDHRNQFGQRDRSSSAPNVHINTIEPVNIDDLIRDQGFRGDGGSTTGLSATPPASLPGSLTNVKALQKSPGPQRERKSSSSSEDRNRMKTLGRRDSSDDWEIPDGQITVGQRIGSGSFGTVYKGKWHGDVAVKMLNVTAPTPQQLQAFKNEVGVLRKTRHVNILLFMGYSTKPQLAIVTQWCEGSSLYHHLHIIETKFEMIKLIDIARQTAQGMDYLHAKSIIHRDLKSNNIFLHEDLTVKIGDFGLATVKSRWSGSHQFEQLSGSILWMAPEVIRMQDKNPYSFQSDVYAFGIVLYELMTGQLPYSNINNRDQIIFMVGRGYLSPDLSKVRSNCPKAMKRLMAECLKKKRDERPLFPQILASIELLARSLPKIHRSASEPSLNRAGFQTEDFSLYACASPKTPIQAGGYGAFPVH
Source text: as §1

B-Raf V600E = B-Raf V600E (Homo sapiens, UniProt P15056, V600E); assay: Kinase activity assay, B-Raf V600E; conditions: Table 1c; read-out: activity toward kinase B-Raf V600E, IC50
B-Raf V600E, sequence (P15056 whole entry V600E): as the sequence (P15056 whole entry) above, with V600E counted along it
Source text: as §1

Flt-3 = molecular target: T2, Flt-3 (Homo sapiens, UniProt P36888); assay: Kinase activity assay, Flt-3; conditions: Table 1g; read-out: activity toward kinase Flt-3, IC50
T2 sequence (P36888 27-993): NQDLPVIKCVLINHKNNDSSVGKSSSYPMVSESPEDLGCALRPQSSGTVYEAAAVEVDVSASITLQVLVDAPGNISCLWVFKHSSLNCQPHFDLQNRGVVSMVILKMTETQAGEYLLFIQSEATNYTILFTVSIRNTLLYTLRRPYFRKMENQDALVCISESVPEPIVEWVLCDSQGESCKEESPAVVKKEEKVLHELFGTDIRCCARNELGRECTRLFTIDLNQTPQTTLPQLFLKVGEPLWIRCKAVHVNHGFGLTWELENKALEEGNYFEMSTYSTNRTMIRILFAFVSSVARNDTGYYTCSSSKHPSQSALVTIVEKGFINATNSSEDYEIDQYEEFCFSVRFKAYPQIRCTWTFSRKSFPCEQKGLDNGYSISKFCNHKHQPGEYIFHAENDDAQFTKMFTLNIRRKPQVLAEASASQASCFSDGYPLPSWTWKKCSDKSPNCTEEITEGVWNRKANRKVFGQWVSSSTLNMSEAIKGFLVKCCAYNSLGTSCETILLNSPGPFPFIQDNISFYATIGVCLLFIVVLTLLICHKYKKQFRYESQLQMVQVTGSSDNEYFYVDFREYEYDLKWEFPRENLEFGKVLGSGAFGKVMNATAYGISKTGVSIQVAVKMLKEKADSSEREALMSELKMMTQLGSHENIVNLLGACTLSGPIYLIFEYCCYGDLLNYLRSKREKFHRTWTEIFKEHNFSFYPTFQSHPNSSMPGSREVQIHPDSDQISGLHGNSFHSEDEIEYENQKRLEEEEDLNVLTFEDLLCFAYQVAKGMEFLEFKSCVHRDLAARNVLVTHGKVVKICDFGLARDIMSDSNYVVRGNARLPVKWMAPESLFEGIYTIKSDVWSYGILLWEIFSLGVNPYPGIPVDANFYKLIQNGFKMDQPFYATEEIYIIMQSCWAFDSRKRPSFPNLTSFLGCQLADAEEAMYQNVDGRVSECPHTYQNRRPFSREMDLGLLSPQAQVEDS
Source text: as §1

Fms = Fms (Homo sapiens, UniProt P07333); assay: Kinase activity assay, Fms; conditions: Table 1h; read-out: activity toward kinase Fms, IC50
Source text: as §1

Kdr = Kdr (Homo sapiens, UniProt P35968); assay: Kinase activity assay, Kdr; conditions: Table 1i; read-out: activity toward kinase Kdr, IC50
Kdr, sequence (P35968 20-1356): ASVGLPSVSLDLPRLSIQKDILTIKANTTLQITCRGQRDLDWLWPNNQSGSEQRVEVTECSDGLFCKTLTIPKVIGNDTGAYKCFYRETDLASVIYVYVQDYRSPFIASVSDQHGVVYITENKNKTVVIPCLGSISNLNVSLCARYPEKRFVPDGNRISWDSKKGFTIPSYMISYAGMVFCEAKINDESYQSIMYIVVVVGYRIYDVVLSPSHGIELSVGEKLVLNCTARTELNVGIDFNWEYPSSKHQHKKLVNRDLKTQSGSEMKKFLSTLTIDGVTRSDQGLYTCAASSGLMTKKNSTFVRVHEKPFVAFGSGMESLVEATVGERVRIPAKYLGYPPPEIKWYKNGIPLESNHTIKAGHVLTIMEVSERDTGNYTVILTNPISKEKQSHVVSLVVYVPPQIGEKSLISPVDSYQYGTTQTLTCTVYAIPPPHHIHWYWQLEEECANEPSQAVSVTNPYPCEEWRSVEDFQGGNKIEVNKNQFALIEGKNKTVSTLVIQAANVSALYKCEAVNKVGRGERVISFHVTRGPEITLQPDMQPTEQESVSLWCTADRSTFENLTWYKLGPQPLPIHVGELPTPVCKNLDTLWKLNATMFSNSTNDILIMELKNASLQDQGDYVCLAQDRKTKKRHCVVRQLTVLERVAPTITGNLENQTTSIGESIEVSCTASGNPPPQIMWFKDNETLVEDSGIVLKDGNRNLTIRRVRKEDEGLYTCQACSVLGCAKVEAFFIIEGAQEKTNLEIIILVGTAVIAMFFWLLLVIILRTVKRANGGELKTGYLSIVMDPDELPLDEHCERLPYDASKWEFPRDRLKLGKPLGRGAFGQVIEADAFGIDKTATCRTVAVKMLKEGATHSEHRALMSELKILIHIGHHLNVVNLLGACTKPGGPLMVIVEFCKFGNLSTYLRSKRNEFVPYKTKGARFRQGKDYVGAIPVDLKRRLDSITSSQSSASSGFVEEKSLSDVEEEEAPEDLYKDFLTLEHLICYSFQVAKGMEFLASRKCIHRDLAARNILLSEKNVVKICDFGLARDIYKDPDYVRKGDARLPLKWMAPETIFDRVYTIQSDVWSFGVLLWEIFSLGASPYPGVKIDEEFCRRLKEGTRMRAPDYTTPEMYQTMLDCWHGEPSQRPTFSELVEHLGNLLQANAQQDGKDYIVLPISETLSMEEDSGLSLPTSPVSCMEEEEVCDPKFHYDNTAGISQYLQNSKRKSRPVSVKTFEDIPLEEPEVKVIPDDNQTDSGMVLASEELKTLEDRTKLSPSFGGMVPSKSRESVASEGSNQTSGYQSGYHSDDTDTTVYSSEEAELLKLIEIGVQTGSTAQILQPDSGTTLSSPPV
Source text: as §1

Kit = Kit (Homo sapiens, UniProt P10721); assay: Kinase activity assay, Kit; conditions: Table 1j; read-out: activity toward kinase Kit, IC50
Kit, sequence (P10721 26-976): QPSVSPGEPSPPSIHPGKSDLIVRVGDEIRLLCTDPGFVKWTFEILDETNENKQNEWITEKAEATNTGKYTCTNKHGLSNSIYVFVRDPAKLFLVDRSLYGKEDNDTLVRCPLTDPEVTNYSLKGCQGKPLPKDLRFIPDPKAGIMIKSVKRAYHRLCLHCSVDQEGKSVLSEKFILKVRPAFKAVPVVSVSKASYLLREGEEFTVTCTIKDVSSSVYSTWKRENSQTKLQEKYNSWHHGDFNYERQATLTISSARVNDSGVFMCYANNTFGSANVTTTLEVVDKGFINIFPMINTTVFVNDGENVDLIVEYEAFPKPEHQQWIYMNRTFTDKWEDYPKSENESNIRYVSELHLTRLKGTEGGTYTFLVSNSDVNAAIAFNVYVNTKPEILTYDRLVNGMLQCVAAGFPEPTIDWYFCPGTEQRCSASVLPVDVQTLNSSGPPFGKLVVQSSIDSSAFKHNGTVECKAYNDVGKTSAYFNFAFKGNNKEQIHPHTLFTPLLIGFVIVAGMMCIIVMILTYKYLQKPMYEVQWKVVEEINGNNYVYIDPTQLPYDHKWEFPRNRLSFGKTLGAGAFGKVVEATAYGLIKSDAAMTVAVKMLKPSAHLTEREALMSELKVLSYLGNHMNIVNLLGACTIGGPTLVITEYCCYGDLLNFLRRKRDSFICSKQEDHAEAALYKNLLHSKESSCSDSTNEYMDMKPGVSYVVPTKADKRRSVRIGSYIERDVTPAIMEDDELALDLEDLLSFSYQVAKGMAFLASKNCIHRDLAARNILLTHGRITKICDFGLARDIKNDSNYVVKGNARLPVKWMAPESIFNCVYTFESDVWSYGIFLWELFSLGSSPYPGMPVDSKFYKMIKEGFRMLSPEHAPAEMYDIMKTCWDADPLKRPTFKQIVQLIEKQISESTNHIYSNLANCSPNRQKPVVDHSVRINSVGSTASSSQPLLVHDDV
Source text: as §1

Src = Src (Homo sapiens, UniProt P12931); assay: Kinase activity assay, Src; conditions: Table 1k; read-out: activity toward kinase Src, IC50
Src, sequence (P12931 whole entry): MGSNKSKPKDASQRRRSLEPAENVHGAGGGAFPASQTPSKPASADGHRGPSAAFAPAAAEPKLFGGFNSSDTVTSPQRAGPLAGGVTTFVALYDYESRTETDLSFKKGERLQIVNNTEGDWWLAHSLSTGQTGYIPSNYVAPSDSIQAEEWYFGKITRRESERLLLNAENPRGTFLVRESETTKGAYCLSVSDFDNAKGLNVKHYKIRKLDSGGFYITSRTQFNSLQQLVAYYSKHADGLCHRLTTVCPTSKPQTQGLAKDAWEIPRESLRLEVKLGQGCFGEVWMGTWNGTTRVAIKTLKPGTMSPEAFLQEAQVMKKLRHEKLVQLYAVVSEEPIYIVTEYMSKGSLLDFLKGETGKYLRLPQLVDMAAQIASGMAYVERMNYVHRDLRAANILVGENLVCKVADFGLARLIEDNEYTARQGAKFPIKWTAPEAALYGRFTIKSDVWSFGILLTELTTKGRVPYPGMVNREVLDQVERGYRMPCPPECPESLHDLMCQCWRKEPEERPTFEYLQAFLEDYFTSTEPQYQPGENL
Source text: as §1

Flt-1 = Flt-1 (Homo sapiens, UniProt P17948); assay: Kinase activity assay, Flt-1; conditions: Table 1f; read-out: activity toward kinase Flt-1, IC50
Source text: as §1

TrkA = TrkA (Homo sapiens, UniProt P04629); assay: Kinase activity assay, TrkA; conditions: Table 1m; read-out: activity toward kinase TrkA, IC50
TrkA, sequence (P04629 33-796): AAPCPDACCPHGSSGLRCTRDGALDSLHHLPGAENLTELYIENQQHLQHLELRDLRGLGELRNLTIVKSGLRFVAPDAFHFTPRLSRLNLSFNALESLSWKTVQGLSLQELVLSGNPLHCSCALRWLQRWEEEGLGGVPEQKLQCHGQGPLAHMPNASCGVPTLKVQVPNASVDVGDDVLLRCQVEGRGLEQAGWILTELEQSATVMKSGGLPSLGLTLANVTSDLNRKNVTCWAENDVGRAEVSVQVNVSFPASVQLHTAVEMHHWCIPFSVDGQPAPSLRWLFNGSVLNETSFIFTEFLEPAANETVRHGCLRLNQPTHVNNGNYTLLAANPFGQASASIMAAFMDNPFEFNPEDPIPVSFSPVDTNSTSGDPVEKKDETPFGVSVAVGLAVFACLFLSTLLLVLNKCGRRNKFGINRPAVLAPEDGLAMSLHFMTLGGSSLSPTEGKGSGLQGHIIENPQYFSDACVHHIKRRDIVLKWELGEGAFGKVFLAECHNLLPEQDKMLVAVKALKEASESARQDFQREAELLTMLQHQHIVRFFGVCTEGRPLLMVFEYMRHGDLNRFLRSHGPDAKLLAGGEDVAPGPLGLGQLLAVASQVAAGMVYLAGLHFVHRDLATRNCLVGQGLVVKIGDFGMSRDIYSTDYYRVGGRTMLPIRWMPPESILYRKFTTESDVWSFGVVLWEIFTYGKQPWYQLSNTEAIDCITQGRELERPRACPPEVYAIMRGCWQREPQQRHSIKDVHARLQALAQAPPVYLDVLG
Source text: as §1

C-Raf = C-Raf (Homo sapiens, UniProt P04049); assay: Kinase activity assay, C-Raf; conditions: Table 1d; read-out: activity toward kinase C-Raf, IC50
Source text: as §1

Btk = Btk (Homo sapiens, UniProt Q06187); assay: Kinase activity assay, Btk; conditions: Table 1e; read-out: activity toward kinase Btk, IC50
Btk, sequence (Q06187 whole entry): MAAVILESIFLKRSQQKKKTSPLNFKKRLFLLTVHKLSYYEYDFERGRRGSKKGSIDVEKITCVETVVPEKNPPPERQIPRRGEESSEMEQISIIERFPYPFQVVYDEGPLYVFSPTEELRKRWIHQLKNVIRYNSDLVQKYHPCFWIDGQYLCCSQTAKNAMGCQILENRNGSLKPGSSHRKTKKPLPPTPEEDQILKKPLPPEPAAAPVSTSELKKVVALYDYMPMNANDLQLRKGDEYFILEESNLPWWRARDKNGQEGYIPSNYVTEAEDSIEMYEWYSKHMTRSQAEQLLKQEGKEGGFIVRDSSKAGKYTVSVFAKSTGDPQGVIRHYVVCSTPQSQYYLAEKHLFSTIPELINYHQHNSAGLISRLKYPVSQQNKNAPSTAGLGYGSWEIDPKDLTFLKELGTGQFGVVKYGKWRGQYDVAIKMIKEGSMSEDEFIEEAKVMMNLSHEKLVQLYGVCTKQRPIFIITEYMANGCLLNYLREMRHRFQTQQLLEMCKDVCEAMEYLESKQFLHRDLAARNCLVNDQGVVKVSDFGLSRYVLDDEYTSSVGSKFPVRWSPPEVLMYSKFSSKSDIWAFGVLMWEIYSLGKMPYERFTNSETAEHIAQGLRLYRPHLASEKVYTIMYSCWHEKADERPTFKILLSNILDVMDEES
Source text: as §1

Measured: IC50

COc1ccc(CNc2ccc(Cc3c[nH]c4ncnc(OC)c34)cn2)cn1 [P-0013, (6-Methoxy-pyridin-3-ylmethyl)-[5-(4-methoxy-7H-pyrrolo[2,3-d]pyrimidin-5-ylmethyl)-pyridin-2-yl]-amine]
≤ 10 µM: A-Raf | B-Raf | B-Raf V600E | Flt-3 | Fms | Kdr | Kit

Fc1nc(NCc2ccc(N3CCCC3)cn2)ccc1Cc1c[nH]c2ncncc12 [P-0089, [6-Fluoro-5-(7H-pyrrolo[2,3-d]pyrimidin-5-ylmethyl)-pyridin-2-yl]-(5-pyrrolidin-1-yl-pyridin-2-ylmethyl)-amine]
≤ 10 µM: B-Raf V600E | Fms | Kdr | Kit | Src

Fc1nc(NCc2ccc(Cl)cc2)ccc1Cc1c[nH]c2ncncc12 [P-0006, (4-Chloro-benzyl)-[6-fluoro-5-(7H-pyrrolo[2,3-d]pyrimidin-5-ylmethyl)-pyridin-2-yl]-amine]
not listed: B-Raf | C-Raf | Btk
≤ 10 µM: all other assays above

COc1ncnc2[nH]cc(Cc3ccc(NCc4ccc(C(F)(F)F)nc4)nc3F)c12 [P-0101, [6-Fluoro-5-(4-methoxy-7H-pyrrolo[2,3-d]pyrimidin-5-ylmethyl)-pyridin-2-yl]-(6-trifluoromethyl-pyridin-3-ylmethyl)-amine]
not listed: A-Raf | Flt-3 | Src | Flt-1
≤ 10 µM: all other assays above

Fc1nc(NCc2ccc(C(F)(F)F)nc2)ccc1Cc1c[nH]c2ncncc12 [P-0007, [6-Fluoro-5-(7H-pyrrolo[2,3-d]pyrimidin-5-ylmethyl)-pyridin-2-yl]-(6-trifluoromethyl-pyridin-3-ylmethyl)-amine]
≤ 10 µM: A-Raf | B-Raf V600E | Flt-3 | Fms | Kdr | Kit | TrkA

COc1ncnc2[nH]cc(Cc3cnc(NCc4cncc(F)c4)nc3)c12 [P-0098, (5-Fluoro-pyridin-3-ylmethyl)-[5-(4-methoxy-7H-pyrrolo[2,3-d]pyrimidin-5-ylmethyl)-pyrimidin-2-yl]-amine]
≤ 10 µM: Btk | Fms | Kit | TrkA

COc1ncccc1CNc1ccc(Cc2c[nH]c3ncnc(OC)c23)c(F)n1 [P-0097, [6-Fluoro-5-(4-methoxy-7H-pyrrolo[2,3-d]pyrimidin-5-ylmethyl)-pyridin-2-yl]-(2-methoxy-pyridin-3-ylmethyl)-amine]
≤ 10 µM: Fms | Kit | Src | TrkA

COc1ncc(F)cc1CNc1ccc(Cc2c[nH]c3ncncc23)c(F)n1 [P-0011, (5-Fluoro-2-methoxy-pyridin-3-ylmethyl)-[6-fluoro-5-(7H-pyrrolo[2,3-d]pyrimidin-5-ylmethyl)-pyridin-2-yl]-amine]
≤ 10 µM: A-Raf | Flt-3 | Fms | Kdr | Kit | TrkA

COc1ncnc2[nH]cc(Cc3ccc(NCc4ccccc4Cl)nc3)c12 [P-0014, (2-Chloro-benzyl)-[5-(4-methoxy-7H-pyrrolo[2,3-d]pyrimidin-5-ylmethyl)-pyridin-2-yl]-amine]
≤ 10 µM: A-Raf | B-Raf V600E | Flt-3 | Fms | Kdr | Kit | Src

COc1ncnc2[nH]cc(Cc3ccc(NCc4ccccc4Cl)nc3F)c12 [P-0090, (2-Chloro-benzyl)-[6-fluoro-5-(4-methoxy-7H-pyrrolo[2,3-d]pyrimidin-5-ylmethyl)-pyridin-2-yl]-amine]
≤ 10 µM: Fms | Kit | Src | TrkA

Fc1nc(NCc2ccccc2Cl)ccc1Cc1c[nH]c2ncncc12 [P-0005, (2-Chloro-benzyl)-[6-fluoro-5-(7H-pyrrolo[2,3-d]pyrimidin-5-ylmethyl)-pyridin-2-yl]-amine]
≤ 10 µM: Flt-3 | Fms | Kdr | Kit | Src | TrkA

COc1ccc(CNc2ccc(Cc3c[nH]c4ncncc34)c(F)n2)cn1 [P-0009, [6-Fluoro-5-(7H-pyrrolo[2,3-d]pyrimidin-5-ylmethyl)-pyridin-2-yl]-(6-methoxy-pyridin-3-ylmethyl)-amine]
≤ 10 µM: A-Raf | B-Raf V600E | Btk | Flt-3 | Fms | Kdr | Kit

Fc1nc(NCc2cccnc2OC2CCCCC2)ccc1Cc1c[nH]c2ncncc12 [P-0088, (2-Cyclohexyloxy-pyridin-3-ylmethyl)-[6-fluoro-5-(7H-pyrrolo[2,3-d]pyrimidin-5-ylmethyl)-pyridin-2-yl]-amine]
≤ 10 µM: B-Raf | B-Raf V600E | C-Raf | Fms | Kdr | Kit | Src

COc1ncnc2[nH]cc(Cc3ccc(NCc4cnccc4C(F)(F)F)nc3F)c12 [P-0095, [6-Fluoro-5-(4-methoxy-7H-pyrrolo[2,3-d]pyrimidin-5-ylmethyl)-pyridin-2-yl]-(4-trifluoromethyl-pyridin-3-ylmethyl)-amine]
≤ 10 µM: B-Raf V600E | Fms | Kit | Src | TrkA

COc1ncc(CNc2ncc(Cc3c[nH]c4ncnc(OC)c34)cn2)cc1F [P-0092, (5-Fluoro-6-methoxy-pyridin-3-ylmethyl)-[5-(4-methoxy-7H-pyrrolo[2,3-d]pyrimidin-5-ylmethyl)-pyrimidin-2-yl]-amine]
≤ 10 µM: C-Raf | Fms | Kit | Src
